Values quoted from earlier work as cited in paper PMC12315921 (Translational Vision Science & Technology, 2025).
Like-named read-outs stand apart in the source and are kept apart here.

Assays:
PKM2 [1] = test system: PKM2
PKM2 [2] = test system: PKM2; remark: listed apart in the source

SMILES	AC50 of PK activation (PKM2 [1]; in the absence of FBP)	AC50 of PK activation (PKM2 [1]; in the presence of FBP)	AC50 (PKM2 [2])	Kd (PKM2 [2])
Nc1cccc(S(=O)(=O)N2CCCN(S(=O)(=O)c3ccc4c(c3)OCCO4)CC2)c1 [DASA-58]	micromolar	low nanomolar	–	–
O=C(COP(=O)(O)O)[C@@H](O)[C@H](O)[C@H](O)COP(=O)(O)O [FBP, fructose 1,6-biphosphate]	–	–	nanomolar range	nanomolar range
